The values that follow come from ChEMBL document CHEMBL5154668, “Modulating physicochemical properties of tetrahydropyridine-2-amine BACE1 inhibitors with electron-withdrawing groups: A systematic study” (Eur J Med Chem, 2022).

As usually defined, the IC50 is the midpoint of a concentration-inhibition curve. For orientation: Papp means the rate of passage across a membrane or cell layer, normalised by area and donor concentration. By efflux ratio is commonly meant a quotient of directional permeabilities that is used to spot active efflux. Broadly, the pKa is the negative logarithm of the acid dissociation constant. A higher pKa goes with a weaker acid or stronger base.

Data set [1] is described as follows: Inhibition of sodium channel (unknown origin). On the set-up: species or system Homo sapiens.
Data set [2] in a line: Inhibition of calcium channel (unknown origin). More on the design: species or system Homo sapiens.
The next data set deals with Beta-secretase 1 (Homo sapiens, UniProt P56817). The data set is described as follows: Inhibition of BACE1 (unknown origin).
Data set [3] addresses Voltage-gated inwardly rectifying potassium channel KCNH2 (Homo sapiens, UniProt Q12809). The data set is described as follows: Inhibition of hERG. It counts as toxicity.
Data set [4] is described as follows: Apparent permeability in MDCK-MDR1 cells. It counts as ADME, cell-based, Canis lupus familiaris. To be noted: dog.
Data set [5] is described as follows: Efflux ratio of apparent permeability in MDCK-MDR1 cells. Format: ADME, cell-based, Canis lupus familiaris. To be noted: dog.
Data set [6] in a line: Dissociation constant, pKa of the compound by potentiometric titration method. Format: physicochemical.

Some results are limits rather than exact numbers.

Chain of Voltage-gated inwardly rectifying potassium channel KCNH2 (Q12809 whole entry): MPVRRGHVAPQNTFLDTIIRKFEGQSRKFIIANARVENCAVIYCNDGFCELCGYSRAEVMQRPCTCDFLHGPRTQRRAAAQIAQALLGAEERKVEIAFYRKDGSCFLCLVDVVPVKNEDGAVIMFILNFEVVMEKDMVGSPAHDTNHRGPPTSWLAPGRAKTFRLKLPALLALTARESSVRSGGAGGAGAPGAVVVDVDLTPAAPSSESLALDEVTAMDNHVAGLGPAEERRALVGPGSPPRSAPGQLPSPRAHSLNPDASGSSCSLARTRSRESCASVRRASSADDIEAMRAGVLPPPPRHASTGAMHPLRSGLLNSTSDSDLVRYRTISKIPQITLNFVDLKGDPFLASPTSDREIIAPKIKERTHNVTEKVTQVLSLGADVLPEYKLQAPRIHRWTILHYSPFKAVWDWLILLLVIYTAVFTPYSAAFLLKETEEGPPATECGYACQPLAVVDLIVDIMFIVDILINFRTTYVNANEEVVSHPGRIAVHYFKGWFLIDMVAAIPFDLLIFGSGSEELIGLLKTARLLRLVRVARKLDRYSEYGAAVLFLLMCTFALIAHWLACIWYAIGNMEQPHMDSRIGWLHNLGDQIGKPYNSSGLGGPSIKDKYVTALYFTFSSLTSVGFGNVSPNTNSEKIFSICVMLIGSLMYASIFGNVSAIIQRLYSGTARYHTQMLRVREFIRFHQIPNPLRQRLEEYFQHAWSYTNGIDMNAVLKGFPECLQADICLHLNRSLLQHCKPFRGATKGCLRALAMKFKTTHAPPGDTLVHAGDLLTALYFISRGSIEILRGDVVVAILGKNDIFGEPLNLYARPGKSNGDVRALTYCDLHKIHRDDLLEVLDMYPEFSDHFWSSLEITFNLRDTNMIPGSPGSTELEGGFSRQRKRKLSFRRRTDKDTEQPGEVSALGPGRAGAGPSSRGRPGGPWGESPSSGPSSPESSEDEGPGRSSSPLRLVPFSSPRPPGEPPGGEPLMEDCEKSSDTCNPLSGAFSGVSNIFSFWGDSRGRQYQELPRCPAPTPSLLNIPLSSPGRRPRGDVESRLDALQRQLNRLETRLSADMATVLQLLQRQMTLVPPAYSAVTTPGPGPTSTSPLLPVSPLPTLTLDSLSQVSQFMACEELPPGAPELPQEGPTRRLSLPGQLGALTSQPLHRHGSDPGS
Chain of Beta-secretase 1 (P56817 whole entry): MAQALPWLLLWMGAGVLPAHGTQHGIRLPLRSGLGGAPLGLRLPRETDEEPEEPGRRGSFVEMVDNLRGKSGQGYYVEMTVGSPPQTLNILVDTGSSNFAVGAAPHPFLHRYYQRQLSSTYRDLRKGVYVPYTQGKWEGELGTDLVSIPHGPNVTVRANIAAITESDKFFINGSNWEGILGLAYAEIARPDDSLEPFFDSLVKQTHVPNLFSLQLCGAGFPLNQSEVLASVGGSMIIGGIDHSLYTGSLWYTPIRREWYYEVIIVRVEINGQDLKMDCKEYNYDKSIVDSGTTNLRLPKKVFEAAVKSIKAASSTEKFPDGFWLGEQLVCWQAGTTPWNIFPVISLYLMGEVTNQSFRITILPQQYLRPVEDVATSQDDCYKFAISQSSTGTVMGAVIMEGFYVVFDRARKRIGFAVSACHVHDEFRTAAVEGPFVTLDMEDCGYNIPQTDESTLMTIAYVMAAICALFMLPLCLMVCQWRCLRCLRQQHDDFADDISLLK

Consider `C[C@@]1(S(C)(=O)=O)CC[C@@](CF)(c2cc(NC(=O)c3cnc(OCF)cn3)ccc2F)N=C1N`, for which the figures for the IC50 in data set [1] and in data set [2] were 8510 nM and more than 10000 nM, respectively.

With `COc1cnc(-c2ccc(F)c([C@]3(C)CC[C@@](C)(C#N)C(N)=N3)c2)cn1`, the figures for the IC50 (on Beta-secretase 1; in data set [1]; in data set [2]) were 9.8 nM, 4900 nM and 6610 nM, respectively.

Take `CC1CC[C@@](CF)(c2cc(-c3cc4c(cn3)OC(F)(F)O4)ccc2F)N=C1N` (stereo not given in full): the IC50 against Beta-secretase 1 was determined as 59 nM; in data set [1], 650 nM; in data set [2], 1950 nM.

As for `COc1cnc(-c2ccc(F)c([C@]3(CF)CC[C@@](C)(C#N)C(N)=N3)c2)cn1`, the IC50 on Beta-secretase 1 was 54 nM; in data set [1] it was more than 10000 nM; in data set [2], more than 10000 nM.

For `COc1cnc(C(=O)Nc2ccc(F)c([C@@]3(C)N=C(N)[C@](C)(S(C)(=O)=O)C[C@@H]3F)c2)cn1`, the IC50 in data set [1] and in data set [2] was more than 10000 nM throughout.

Turning to `CN(C)C(=O)[C@]1(C)CC[C@@](CF)(c2cc(-c3ccc(F)cn3)ccc2F)N=C1N`, the IC50 on Beta-secretase 1 is 66 nM; in data set [3], 8320 nM; in data set [1], more than 10000 nM; in data set [2], more than 10000 nM. Also, in data set [4], the Papp turned out to be 2.7 ×10⁻⁶ cm/s. The efflux ratio in data set [5] amounted to 52. Also, in data set [6], the pKa turned out to be 9.2.

`C[C@@]1(S(C)(=O)=O)CC[C@@](CF)(c2nc(-c3cnc(OCF)cn3)ccc2F)N=C1N` returned an IC50 against Beta-secretase 1 of 38 nM. For the same compound, the pKa in data set [6] was 7.6.

With `CN(C)S(=O)(=O)[C@]1(C)CC[C@@](CF)(c2cc(-c3ccc(F)cn3)ccc2F)N=C1N`, the IC50 against Beta-secretase 1 is 4 nM; in data set [1], 2140 nM; in data set [2], more than 10000 nM.

As for `C[C@@]1(c2cc(-c3cc4c(cn3)OC(F)(F)O4)ccc2F)CC[C@@](C)(S(=O)(=O)C(F)(F)F)C(N)=N1`, the IC50 against Beta-secretase 1 was 5.9 nM; in data set [3], more than 10000 nM; in data set [1] it was 170 nM; in data set [2], less than 100 nM. Further, the pKa in data set [6] is 7.4.

As for `COc1cnc(-c2ccc(F)c([C@]3(CF)CC[C@](C)(C#N)C(N)=N3)c2)cn1`, the values for the IC50 (against Beta-secretase 1; in data set [1]; in data set [2]) were 851 nM, more than 10000 nM and more than 10000 nM, respectively.

As to `COc1cnc(-c2ccc(F)c([C@]3(C)CC[C@@](C)(S(C)(=O)=O)C(N)=N3)c2)cn1`, the IC50 against Beta-secretase 1 was 4 nM; in data set [1] it was 8710 nM; in data set [2] it was more than 10000 nM.

As for `COc1cnc(-c2ccc(F)c([C@]3(C(F)F)CC[C@@](C)(C#N)C(N)=N3)c2)cn1`, the concentration for half-maximal inhibition (IC50) against Beta-secretase 1 was 12 nM; in data set [3], more than 10000 nM; in data set [1] it was more than 10000 nM; in data set [2], more than 10000 nM. The Papp in data set [4] came to 54 ×10⁻⁶ cm/s. In data set [5], the efflux ratio came out at 15. Further, the pKa in data set [6] was 6.

As to `C[C@@]1(c2cc(NC(=O)c3ccc(F)cn3)ccc2F)CC[C@@](CF)(S(C)(=O)=O)C(N)=N1`, the IC50 was 15 nM against Beta-secretase 1, 6460 nM in data set [1] and more than 10000 nM in data set [2].

Regarding `C[C@@]1(c2cc(-c3ccc(Cl)cn3)ccc2F)CCC2(CC2)C(N)=N1`, at Beta-secretase 1, the IC50 amounted to 31 nM. For the same compound, the pKa in data set [6] is more than 11.

With `C[C@@]1(c2cc(-c3ccc(Cl)cn3)ccc2F)C[C@@H]2C[C@@H]2C(N)=N1`, on Beta-secretase 1, it took 96 nM to reach half-maximal inhibition (IC50). In data set [6], the pKa was more than 11.

As to `NC1=N[C@](CF)(c2cc(-c3cnc(OCF)cn3)ccc2F)CCC1(F)F`, the figures for the IC50 (at Beta-secretase 1; in data set [1]; in data set [2]) were 8.9 nM, more than 10000 nM and more than 10000 nM, respectively.

As to `C[C@@]1(c2nc(-c3ccc(F)cn3)cs2)CC[C@@](C)(S(C)(=O)=O)C(N)=N1`, it took 25 nM to reach half-maximal inhibition against Beta-secretase 1 (IC50). Besides, the Papp in data set [4] came out at 37 ×10⁻⁶ cm/s. In data set [5], the efflux ratio was determined as 22. The pKa in data set [6] was 7.

For the compound `C[C@@]1(c2cc(-c3cnc(OCF)cn3)ccc2F)CCC(F)(F)C(N)=N1`, the IC50 on Beta-secretase 1 was 12 nM; in data set [1], more than 10000 nM; in data set [2], more than 10000 nM.
